tested on: HCV pseudoparticles (genotype 1a HCV E1 and E2 envelope, H77C isolate); assay: microbe, parasite or virus in culture; format: cell-based; conditions: Hepatitis C virus, GETYPE1A, Huh-7, 48 h, read-out: Activity (EC50 class), HCV pseudoparticle infection of Huh7 cells, luciferase 2 days after infection; EC50 expressed as class A/B

SMILES | EC50 [nM]
CC(C)(CNC(=O)C(=O)NCC1CC1)CNC(=O)c1ccc(Nc2nc(NC3(c4ccc(Cl)cc4)CC3)nc(OCC(F)(F)F)n2)cc1 [Compound 1032] | 0.01 to 10

same assay, conditions: Hepatitis C virus, Huh-7, 48 h, HCV pseudoparticle infection of Huh7 cells, luciferase 2 days after infection; average of duplicates

SMILES | EC50 [nM]
C[C@H](NC(=O)C(=O)NCC[C@H](NC(=O)c1ccc(Nc2nc(NC3(c4ccc(Cl)cc4)CC3)nc(OCC(F)(F)F)n2)cc1)C(=O)O)C1CCCCC1 [Compound 1212] | 0.07
O=C(Nc1ccc(C(=O)O)cc1)C(=O)NC1CCCC1CNC(=O)c1ccc(Nc2nc(NC3(c4ccc(Cl)cc4)CC3)nc(OCC(F)(F)F)n2)cc1 (centres unmarked) [Compound 1464] | 0.48
Cc1ccc(-c2ccc(NC(=O)C(=O)NCC(C)(C)CNC(=O)c3ccc(Nc4nc(NC5(c6ccc(Cl)cc6)CC5)nc(OCC(F)(F)F)n4)cc3)cc2)cc1 [Compound 1565] | 0.13

same assay, conditions: Hepatitis C virus, Huh-7, 48 h, HCV pseudoparticles (genotype 1a, H77C) in Huh7 cells; average of duplicate; luciferase 2 days after infection

SMILES | EC50 [nM]
Cc1ccc(NC(=O)C(=O)N(CCO)CCCNC(=O)c2ccc(Nc3nc(NC4(c5ccc(Cl)cc5)CC4)nc(OCC(F)(F)F)n3)cc2)cc1O [Compound 3506] | 0.51
CC(C)(CNC(=O)C(=O)Nc1ccc(C(=O)c2ccc(N)cc2)cc1)CNC(=O)c1ccc(Nc2nc(NC3(c4ccc(Cl)cc4)CC3)nc(OCC(F)(F)F)n2)cc1 [Compound 3264] | 0.24
O=C(NCC[C@H](NC(=O)c1ccc(Nc2nc(NC3(c4ccc(Cl)cc4)CC3)nc(OCC(F)(F)F)n2)cc1)C(=O)O)C(=O)Nc1ccc(-c2ncco2)cc1 [Compound 3547] | 2.09
Cc1ccc(NC(=O)C(=O)NCC(C)(C)CNC(=O)c2ccc(Nc3nc(NC4(c5ccc(Cl)cc5)CC4)nc(OCC(F)(F)F)n3)cc2)c(C)c1 [Compound 3055] | 0.0095
CC(C)(CNC(=O)C(=O)NO)CNC(=O)c1ccc(Nc2nc(NC3(c4ccc(Cl)cc4)CC3)nc(OCC(F)(F)F)n2)cc1 [Compound 3074] | 0.054

same assay, conditions: Hepatitis C virus, Huh-7, 48 h, read-out: Activity (EC50 class), HCV pseudoparticle infection of Huh7 cells, luciferase 2 days after infection; EC50 expressed as class A/B

SMILES | EC50 [nM]
COC(=O)[C@H](CNC(=O)C(=O)NCC1CC[C@H]2C[C@@H]1C2(C)C)NC(=O)c1ccc(Nc2nc(NC3(c4ccc(Cl)cc4)CC3)nc(OCC(F)(F)F)n2)cc1 (some centres unmarked) [Compound 1453] | 0.01 to 10
COC(=O)[C@H](CCCNC(=O)C(N)=O)NC(=O)c1ccc(Nc2nc(NC3(c4ccc(Cl)cc4)CC3)nc(OCC(F)(F)F)n2)cc1 [Compound 1012, (S)-methyl 5-(2-amino-2-oxoacetamido)-2-(4-(4-(1-(4-chlorophenyl)cyclopropylamino)-6-(2,2,2-trifluoroethoxy)-1,3,5-triazin-2-ylamino)benzamido)pentanoate] | 0.01 to 10
CN(C)C(=O)C(=O)NC[C@H](NC(=O)c1ccc(Nc2nc(NC3(c4ccc(Cl)cc4)CC3)nc(OCC(F)(F)F)n2)cc1)C(=O)OCCOCCO [Compound 1023, (S)-2-(2-hydroxyethoxy)ethyl 2-(4-(4-(1-(4-chlorophenyl)cyclopropylamino)-6-(2,2,2-trifluoroethoxy)-1,3,5-triazin-2-ylamino)benzamido)-3-(2-(dimethylamino)-2-oxoacetamido)propanoate] | 0.01 to 10
CC(C)(CNC(=O)C(=O)Nc1cccc(Cl)c1)CNC(=O)c1ccc(Nc2nc(NC3(c4ccc(Cl)cc4)CC3)nc(OCC(F)(F)F)n2)cc1 [Compound 1561] | 0.01 to 10
O=C(NCC[C@H](NC(=O)c1ccc(Nc2nc(NC3(c4ccc(Cl)cc4)CC3)nc(OCC(F)(F)F)n2)cc1)C(=O)O)C(=O)Nc1ccc(F)cc1F [Compound 1502] | 0.01 to 10
O=C(NCCc1ccccn1)C(=O)NC[C@H](NC(=O)c1ccc(Nc2nc(NC3(c4ccc(Cl)cc4)CC3)nc(OCC(F)(F)F)n2)cc1)C(=O)O [Compound 1394] | 0.01 to 10
COC(=O)[C@H](CCNC(=O)C(=O)Nc1ccccc1OC)NC(=O)c1ccc(Nc2nc(NC3(c4ccc(Cl)cc4)CC3)nc(OCC(F)(F)F)n2)cc1 [Compound 1234] | 0.01 to 10
CC(C)(C)OC(=O)N1CCC(NC(=O)C(=O)NCC[C@H](NC(=O)c2ccc(Nc3nc(NC4(c5ccc(Cl)cc5)CC4)nc(OCC(F)(F)F)n3)cc2)C(=O)O)CC1 [Compound 1119] | 0.01 to 10
C[C@H](NC(=O)C(=O)NCC[C@H](NC(=O)c1ccc(Nc2nc(NC3(c4ccc(Cl)cc4)CC3)nc(OCC(F)(F)F)n2)cc1)C(=O)O)C1CCCCC1 [Compound 1212] | 0.01 to 10
O=C(NCC1CC1)C(=O)NCC1(CNC(=O)c2ccc(Nc3nc(NC4(c5ccc(Cl)cc5)CC4)nc(OCC(F)(F)F)n3)cc2)CC1 [Compound 1493] | 0.01 to 10
O=C(Nc1ccc(C(=O)O)cc1)C(=O)NC1CCCC1CNC(=O)c1ccc(Nc2nc(NC3(c4ccc(Cl)cc4)CC3)nc(OCC(F)(F)F)n2)cc1 (centres unmarked) [Compound 1464] | 0.01 to 10
O=C(NCC1CCCO1)C(=O)NC[C@@H](NC(=O)c1ccc(Nc2nc(NC3(c4ccc(Cl)cc4)CC3)nc(OCC(F)(F)F)n2)cc1)C(=O)O (some centres unmarked) [Compound 1042] | 0.01 to 10
Cc1nccn1CCNC(=O)C(=O)NC[C@H](NC(=O)c1ccc(Nc2nc(NC3(c4ccc(Cl)cc4)CC3)nc(OCC(F)(F)F)n2)cc1)C(=O)O [Compound 1412] | 10 to 1000
O=C(NCC1CCCCC1)C(=O)NC[C@@H](NC(=O)c1ccc(Nc2nc(NC3(c4ccc(Cl)cc4)CC3)nc(OCC(F)(F)F)n2)cc1)C(=O)O [Compound 1039] | 0.01 to 10
COC(=O)[C@H](CNC(=O)C(=O)N[C@H]1C[C@H](C)CC[C@H]1C(C)C)NC(=O)c1ccc(Nc2nc(NC3(c4ccc(Cl)cc4)CC3)nc(OCC(F)(F)F)n2)cc1 [Compound 1067] | 0.01 to 10
O=C(NCC[C@H](NC(=O)c1ccc(Nc2nc(NC3(c4ccc(Cl)cc4)CC3)nc(OCC(F)(F)F)n2)cc1)C(=O)O)C(=O)NCC1CC1c1cccc(F)c1 (some centres unmarked) [Compound 1448] | 0.01 to 10
COC(=O)[C@H](CCNC(=O)C(=O)Nc1ccnc(OC)c1)NC(=O)c1ccc(Nc2nc(NC3(c4ccc(Cl)cc4)CC3)nc(OCC(F)(F)F)n2)cc1 [Compound 1217] | 0.01 to 10
Cc1ccc(-c2ccc(NC(=O)C(=O)NCC(C)(C)CNC(=O)c3ccc(Nc4nc(NC5(c6ccc(Cl)cc6)CC5)nc(OCC(F)(F)F)n4)cc3)cc2)cc1 [Compound 1565] | 0.01 to 10
COc1cccc(-c2ccc(NC(=O)C(=O)NCC(C)(C)CNC(=O)c3ccc(Nc4nc(NC5(c6ccc(Cl)cc6)CC5)nc(OCC(F)(F)F)n4)cc3)cc2)c1 [Compound 1581] | 0.01 to 10
COC(=O)[C@H](CCNC(=O)C(=O)NC1CCNC(=O)C1)NC(=O)c1ccc(Nc2nc(NC3(c4ccc(Cl)cc4)CC3)nc(OCC(F)(F)F)n2)cc1 (some centres unmarked) [Compound 1072] | 0.01 to 10
CN(C)CCNC(=O)C(=O)NC[C@@H](NC(=O)c1ccc(Nc2nc(NC3(c4ccc(Cl)cc4)CC3)nc(OCC(F)(F)F)n2)cc1)C(=O)O [Compound 1045] | 0.01 to 10

same assay, conditions: Hepatitis C virus, Huh-7, 48 h, read-out: Activity (EC50 class), HCV pseudoparticles, Huh7 cells, luciferase 2 days after infection; average of duplicates

SMILES | EC50 [nM]
O=C(NCC[C@H](NC(=O)c1ccc(Nc2nc(NC3(c4ccc(Cl)cc4)CC3)nc(OCC(F)(F)F)n2)cc1)C(=O)O)C(=O)Nc1cccc(C(=O)c2ccccc2)c1 [Compound 3618] | 0.01 to 10
O=C(NC[C@H](NC(=O)c1ccc(Nc2nc(NC3(c4ccc(Cl)cc4)CC3)nc(OCC(F)(F)F)n2)cc1)C(=O)O)C(=O)Nc1ccc(Oc2ccc(Cl)cc2Cl)cc1 [Compound 3753] | 0.01 to 10
CC(C)(CNC(=O)C(=O)Nc1nc2ccc(C(C)(O)O)cc2s1)CNC(=O)c1ccc(Nc2nc(NC3(c4ccc(Cl)cc4)CC3)nc(OCC(F)(F)F)n2)cc1 [Compound 3822] | 0.01 to 10
COC(=O)[C@H](CCNC(=O)C(=O)Nc1cccc(Oc2ccccn2)c1)NC(=O)c1ccc(Nc2nc(NC3(c4ccc(Cl)cc4)CC3)nc(OCC(F)(F)F)n2)cc1 [Compound 3602] | 0.01 to 10
COC(=O)[C@H](CNC(=O)C(=O)Nc1cccc(-c2ccc(Cl)cc2)c1)NC(=O)c1ccc(Nc2nc(NC3(c4ccc(Cl)cc4)CC3)nc(OCC(F)(F)F)n2)cc1 [Compound 3720] | 0.01 to 10
CC(C)(CNC(=O)C(=O)Nc1nc2c(F)cc(F)cc2s1)CNC(=O)c1ccc(Nc2nc(NC3(c4ccc(Cl)cc4)CC3)nc(OCC(F)(F)F)n2)cc1 [Compound 3809] | 0.01 to 10

same assay, conditions: Hepatitis C virus, Huh-7, read-out: Activity (EC50 class), HCV pseudoparticles (genotype 1a, H77C) in Huh7 cells; EC50 expressed as class A/B

SMILES | EC50 [nM]
Cc1ccc(NC(=O)C(=O)N(CCO)CCCNC(=O)c2ccc(Nc3nc(NC4(c5ccc(Cl)cc5)CC4)nc(OCC(F)(F)F)n3)cc2)cc1 [Compound 3501] | 0.01 to 10
O=C(NCC1(CNC(=O)c2ccc(Nc3nc(NC4(c5ccc(Cl)cc5)CC4)nc(OCC(F)(F)F)n3)cc2)CC1)C(=O)Nc1cccc(F)c1 [Compound 3001] | 0.01 to 10
COC(=O)[C@H](CNC(=O)C(=O)Nc1ccc(Cn2cncn2)cc1)NC(=O)c1ccc(Nc2nc(NC3(c4ccc(Cl)cc4)CC3)nc(OCC(F)(F)F)n2)cc1 [Compound 3182] | 0.01 to 10
O=C(NC/C(=N/C(=O)c1ccc(Nc2nc(NC3(c4ccc(Cl)cc4)CC3)nc(OCC(F)(F)F)n2)cc1)C(=O)O)C(=O)Nc1ccc(Oc2ccccc2)cc1 [Compound 3150] | 0.01 to 10
Cc1ccc(NC(=O)C(=O)N(CCO)CCCNC(=O)c2ccc(Nc3nc(NC4(c5ccc(Cl)cc5)CC4)nc(OCC(F)(F)F)n3)cc2)cc1O [Compound 3506] | 0.01 to 10
CC(C)(CNC(=O)C(=O)Nc1cccnc1)CNC(=O)c1ccc(Nc2nc(NC3(c4ccc(Cl)cc4)CC3)nc(OCC(F)(F)F)n2)cc1 [Compound 3245] | 0.01 to 10
CC(C)(CNC(=O)C(=O)NCc1cccc(C(=N)N)c1)CNC(=O)c1ccc(Nc2nc(NC3(c4ccc(Cl)cc4)CC3)nc(OCC(F)(F)F)n2)cc1 [Compound 3039] | 0.01 to 10
COC(=O)[C@H](CNC(=O)C(=O)Nc1ccc(CNC(N)=O)cc1)NC(=O)c1ccc(Nc2nc(NC3(c4ccc(Cl)cc4)CC3)nc(OCC(F)(F)F)n2)cc1 [Compound 3197] | 0.01 to 10
CC(C)(CNC(=O)C(=O)Nc1ccc(C(=O)c2ccc(N)cc2)cc1)CNC(=O)c1ccc(Nc2nc(NC3(c4ccc(Cl)cc4)CC3)nc(OCC(F)(F)F)n2)cc1 [Compound 3264] | 0.01 to 10
O=C(Nc1ccc(F)cc1)C(=O)N1CCCC(CNC(=O)c2ccc(Nc3nc(NC4(c5ccc(Cl)cc5)CC4)nc(OCC(F)(F)F)n3)cc2)C1 (centres unmarked) [Compound 3482] | 0.01 to 10
COc1ccccc1-c1ccccc1NC(=O)C(=O)NCC(C)(C)CNC(=O)c1ccc(Nc2nc(NC3(c4ccc(Cl)cc4)CC3)nc(OCC(F)(F)F)n2)cc1 [Compound 3050] | 0.01 to 10
O=C(NCC[C@H](NC(=O)c1ccc(Nc2nc(NC3(c4ccc(Cl)cc4)CC3)nc(OCC(F)(F)F)n2)cc1)C(=O)O)C(=O)Nc1ccc(-c2ncco2)cc1 [Compound 3547] | 0.01 to 10
Cc1ccc(NC(=O)C(=O)NCC(C)(C)CNC(=O)c2ccc(Nc3nc(NC4(c5ccc(Cl)cc5)CC4)nc(OCC(F)(F)F)n3)cc2)c(C)c1 [Compound 3055] | 0.01 to 10
COC(=O)[C@H](CNC(=O)C(=O)Nc1ccc(-c2csc(C)n2)cc1)NC(=O)c1ccc(Nc2nc(NC3(c4ccc(Cl)cc4)CC3)nc(OCC(F)(F)F)n2)cc1 [Compound 3190] | 0.01 to 10
CC(C)(CNC(=O)C(=O)NCc1ccc(-c2ccccc2)cc1)CNC(=O)c1ccc(Nc2nc(NC3(c4ccc(Cl)cc4)CC3)nc(OCC(F)(F)F)n2)cc1 [Compound 3017] | 0.01 to 10
CC(C)(CNC(=O)C(=O)NO)CNC(=O)c1ccc(Nc2nc(NC3(c4ccc(Cl)cc4)CC3)nc(OCC(F)(F)F)n2)cc1 [Compound 3074] | 0.01 to 10
COC(=O)[C@H](CCNC(=O)C(=O)Nc1ccc(-n2cncn2)cc1)NC(=O)c1ccc(Nc2nc(NC3(c4ccc(Cl)cc4)CC3)nc(OCC(F)(F)F)n2)cc1 [Compound 3130] | 0.01 to 10

Source: patent US8916702B2 (priority 2012, dated 2014)
